Measurements published in patent US11944616B2 (INSTITUT NATIONAL DE LA SANTE ET DE LA RECHERCHE MEDICAL …, priority 2016, dated 2024).

Tested on: NMDAR
Assay: NMDAR blocking activity using patch-clamp (whole-cell voltage clamp recordings from rat hippocampal neurons)
Assay type: cell-based
Conditions: currents evoked by 100 μM NMDA and 20 μM D-serine, clamped at −60 mV
For `CC[N@+]1(C)[C@H]2Cc3ccccc3[C@]1(C)c1ccccc12` [Compound No 2], the IC50 was 0.57 µM.
`CCCC[N@+]1(C)[C@H]2Cc3ccccc3[C@]1(C)c1ccccc12` [Compound No 3] gave an IC50 of 0.5 µM.
`CC(C)C[N@+]1(C)[C@H]2Cc3ccccc3[C@]1(C)c1ccccc12` [Compound No 4] gave an IC50 of 0.82 µM.
`C[C@@]12c3ccccc3C[C@@H](c3ccccc31)[N@@+]2(C)CC1CC1` [Compound No 5] gave an IC50 of 0.4 µM.
In the case of `C[C@@]12c3ccccc3C[C@@H](c3ccccc31)[N@@+]2(C)CC1CCCC1` [Compound No 6], the IC50 is reported as 1.1 µM.

Same assay, conditions: currents evoked by 100 μM NMDA and 20 μM D-serine, clamped at −60 mV, read-out: IC50
`CC[N@@+]1(CCO)[C@H]2Cc3ccccc3[C@]1(C)c1ccccc12` (racemic) [Compound No 27] showed an IC50 of 0.36 µM.
`C[C@@]12c3ccccc3C[C@@H](c3ccccc31)[N+]2(C)C` [Compound No 1] gave an IC50 of 0.65 µM.
`CC[N@@+]1(CCO)[C@H]2Cc3ccccc3[C@]1(C)c1ccccc12` [Compound No 26] showed an IC50 of 0.4 µM.
Compound `CC[N@@+]1(CC2CC2)[C@H]2Cc3ccccc3[C@]1(C)c1ccccc12` [Compound No 31] has an IC50 of 0.27 µM.

Tested on: not listed separately
Assay: In vivo brain penetration measurement (brain/plasma ratio Kp"brain") in rat
Conditions: brain (without cerebellum) and plasma; male Sprague-Dawley rat, 3.45 h constant-rate intravenous infusion, 4 mg/kg, mean of 3 rats ± standard deviation; read-out: Kp"brain" (total brain/plasma concentration ratio at steady state)
Procedure: The femoral vein of male Sprague-Dawley rats (CRL) weighing around 250 g was surgically catheterized at least 72 hours prior to the experiment. 3 animals were performed for each compound tested. The drug was administered as 3.45 h constant-rate intravenous infusion to approach steady state, using a flow rate of 0.8 mL/h, corresponding to dosage of 4 mg/kg (1.067 mg/kg/h, i.e. 1 mg/rat of ˜250 g). The vehicle used was saline.
At the end of the infusion, the rats were anesthetized by inhalation of isoflurane, and blood was collected in a heparinized tube from the abdominal aorta, followed by immediate rinsing of the bloodstream for 2 minutes with saline at a rate of 15 mL/min using a peristaltic pump and left intraventricle cannula (flowing via right atrium). The brain (without cerebellum) was removed, and transferred in a tube and homogenized in two volumes of deionized water using a tissue homogenizer (Precellys24). All samples were stored at −20° C. until analysis. Plasma and brain homogenate sample preparation was performed using solid phase extraction on OASIS® WCX (Waters) and compounds were quantified by reversed phase liquid chromatography and positive electrospray ionization and multiple reaction monitoring mass spectrometry (LC-MS/MS).
This parameter is defined as the ratio of concentrations in brain and blood, Kp“brain” (Cbrain/Cplasma) or log(BB). Log(BB) is the logarithm of the ratio of the steady-state total concentration of a compound in the brain to that in the blood/plasma, log(BB)=log(Cbrain/Cplasma). This parameter depends upon the passive diffusion characteristics, the implication of membrane transporters at the BBB level and the relative drug binding affinity differences between the plasma proteins and brain tissue.
In the case of `C[C@@]12c3ccccc3C[C@@H](c3ccccc31)[N+]2(C)C` [Compound No 1], the Kp at 3.45 h is reported as 0.3 ± 0.03.
In the case of `CC[N@@+]1(CCO)[C@H]2Cc3ccccc3[C@]1(C)c1ccccc12` [Compound No 26], the Kp at 3.45 h is reported as 0.4 ± 0.08.

Same assay, conditions: rat, conclusion from Kp"brain" values
In the case of `C[C@@]12c3ccccc3C[C@@H](c3ccccc31)[N+]2(C)C` [Compound No 1], the “CNS / BBB penetration (in words)” value is reported as “do not penetrate the CNS”.
With `CC[N@@+]1(CCO)[C@H]2Cc3ccccc3[C@]1(C)c1ccccc12` [Compound No 26] the “CNS / BBB penetration (in words)” value was “do not penetrate the CNS”.

Tested on: not given
Assay: not given
Conditions: not given
Compound `CC(C)CC[N@+]1(C)[C@H]2Cc3ccccc3[C@]1(C)c1ccccc12` has a melting point of 215 to 217 °C.
For `CCC[N@+]1(C)[C@H]2Cc3ccccc3[C@]1(C)c1ccccc12`, the melting point was 214 to 217 °C.
Compound `CCCCCC[N@+]1(C)[C@H]2Cc3ccccc3[C@]1(C)c1ccccc12` has a melting point of 200 to 203 °C.
For `CCC(C)C[N@+]1(C)[C@H]2Cc3ccccc3[C@]1(C)c1ccccc12` (stereo partly shown), the melting point was 181 to 184 °C.
`CC[N+]1(CC)[C@H]2Cc3ccccc3[C@]1(C)c1ccccc12` showed a melting point of 237 to 238 °C.
With `C[C@@]12c3ccccc3C[C@@H](c3ccccc31)[N@@+]2(C)CC1CCCCC1` the melting point was 220 to 222 °C.
`C[C@@]12c3ccccc3C[C@@H](c3ccccc31)[N@@+]2(C)Cc1ccccc1` gave a melting point of 220 to 222 °C.
`C[C@@]12c3ccccc3C[C@@H](c3ccccc31)[N@@+]2(C)CC1CCC1` gave a melting point of 159 to 162 °C.
For `C[C@@]12c3ccccc3C[C@@H](c3ccccc31)[N@@+]2(C)CC1(c2ccccc2)CC1`, the melting point was 174 to 176 °C.
For `Cc1ccc(C[N@+]2(C)[C@H]3Cc4ccccc4[C@]2(C)c2ccccc23)cc1`, the melting point was 134 to 136 °C.
Work on `CC(C)(C)c1ccc(C[N@+]2(C)[C@H]3Cc4ccccc4[C@]2(C)c2ccccc23)cc1` yielded a melting point of 152 to 154 °C.
In the case of `COc1ccc(C[N@+]2(C)[C@H]3Cc4ccccc4[C@]2(C)c2ccccc23)cc1`, the melting point is reported as 101 to 103 °C.
`C[C@@]12c3ccccc3C[C@@H](c3ccccc31)[N@@+]2(C)Cc1ccc(Cl)cc1` showed a melting point of 160 to 162 °C.
Work on `C[C@@]12c3ccccc3C[C@@H](c3ccccc31)[N@@+]2(C)Cc1ccccc1Cl` yielded a melting point of 129 to 131 °C.
Work on `Cc1ccccc1C[N@+]1(C)[C@H]2Cc3ccccc3[C@]1(C)c1ccccc12` yielded a melting point of 101 to 103 °C.
Compound `C[C@@]12c3ccccc3C[C@@H](c3ccccc31)[N@@+]2(C)CCO` has a melting point of 216 to 219 °C.
For `C[C@@]12c3ccccc3C[C@@H](c3ccccc31)[N@@+]2(C)CC#N`, the melting point was 147 to 149 °C.
`CC(=O)NCC[N@+]1(C)[C@H]2Cc3ccccc3[C@]1(C)c1ccccc12` showed a melting point of 216 to 218 °C.
For `C[C@@]12c3ccccc3C[C@@H](c3ccccc31)[N@@+]2(C)CC1(c2ccc(Cl)cc2)CC1`, the melting point was 162 to 164 °C.
Compound `CC[N@@+]1(CC2CC2)[C@@H]2Cc3ccccc3[C@@]1(C)c1ccccc12` has a melting point of 180 to 181 °C.
Compound `CC[N+]1(CC)[C@@H]2Cc3ccccc3[C@@]1(C)c1ccccc12` has a melting point of 218 to 219 °C.
`CCC[N@@+]1(CC2CC2)[C@@H]2Cc3ccccc3[C@@]1(C)c1ccccc12` showed a melting point of 203 to 204 °C.
In the case of `CCCC[N@@+]1(CC2CC2)[C@@H]2Cc3ccccc3[C@@]1(C)c1ccccc12`, the melting point is reported as 171 to 172 °C.
`CCC[N@@+]1(CCO)[C@@H]2Cc3ccccc3[C@@]1(C)c1ccccc12` gave a melting point of 221 to 222 °C.
With `CCCC[N@@+]1(CCO)[C@@H]2Cc3ccccc3[C@@]1(C)c1ccccc12` the melting point was 196 to 197 °C.
For `CC[N@@+]1(CCCCO)[C@@H]2Cc3ccccc3[C@@]1(C)c1ccccc12`, the melting point was 201 to 202 °C.
`C[C@]12c3ccccc3C[C@H](c3ccccc31)[N@@+]2(CCO)CC1CC1` gave a melting point of 179 to 180 °C.
Compound `C#CC[N@@+]1(CC2CC2)[C@@H]2Cc3ccccc3[C@@]1(C)c1ccccc12` has a melting point of 168 to 169 °C.
In the case of `C#CC[N@@+]1(CCO)[C@@H]2Cc3ccccc3[C@@]1(C)c1ccccc12`, the melting point is reported as 201 to 202 °C.
Work on `C=CC[N@@+]1(CC2CC2)[C@@H]2Cc3ccccc3[C@@]1(C)c1ccccc12` yielded a melting point of 131 to 132 °C.
Compound `C=CC[N@@+]1(CCO)[C@@H]2Cc3ccccc3[C@@]1(C)c1ccccc12` has a melting point of 196 to 197 °C.
`COCC[N@+]1(C)[C@@H]2Cc3ccccc3[C@@]1(C)c1ccccc12` gave a melting point of 162 to 163 °C.
Compound `C[C@@]12c3ccccc3C[C@@H](c3ccccc31)[N@@+]2(C)CC(N)=O` has a melting point of 189 to 192 °C.
Compound `C[C@@]12c3ccccc3C[C@@H](c3ccccc31)[N@@+]2(C)Cc1ccc(F)cc1` has a melting point of 92 to 94 °C.
`C[C@@]12c3ccccc3C[C@@H](c3ccccc31)[N@@+]2(C)Cc1cccc(C(F)(F)F)c1` gave a melting point of 167 to 170 °C.
`CC[N@@+]1(CCO)[C@H]2Cc3ccccc3[C@]1(C)c1ccccc12` (racemic) [Compound No 27] showed a melting point of 205 to 208 °C.
For `C[C@@]12c3ccccc3C[C@@H](c3ccccc31)[N+]2(C)C` [Compound No 1], the melting point was 270 to 280 °C.
`CC[N@+]1(C)[C@H]2Cc3ccccc3[C@]1(C)c1ccccc12` [Compound No 2] showed a melting point of 230 to 232 °C.
Compound `CCCC[N@+]1(C)[C@H]2Cc3ccccc3[C@]1(C)c1ccccc12` [Compound No 3] has a melting point of 200 to 203 °C.
For `CC(C)C[N@+]1(C)[C@H]2Cc3ccccc3[C@]1(C)c1ccccc12` [Compound No 4], the melting point was 216 to 217 °C.
For `C[C@@]12c3ccccc3C[C@@H](c3ccccc31)[N@@+]2(C)CC1CC1` [Compound No 5], the melting point was 103 to 105 °C.
Compound `C[C@@]12c3ccccc3C[C@@H](c3ccccc31)[N@@+]2(C)CC1CCCC1` [Compound No 6] has a melting point of 125 to 127 °C.
Compound `CC[N@@+]1(CCO)[C@H]2Cc3ccccc3[C@]1(C)c1ccccc12` [Compound No 26] has a melting point of 202 to 205 °C.
Compound `CC[N@@+]1(CC2CC2)[C@H]2Cc3ccccc3[C@]1(C)c1ccccc12` [Compound No 31] has a melting point of 189 to 191 °C.
In the case of `CC[N@@+]1(CCO)[C@H]2Cc3ccccc3[C@]1(C)c1ccccc12` [Compound No 32], the melting point is reported as 115 to 120 °C.
